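Compound exposure: 48 hours, 5 concentrations, 96-well plates. Here, GI50 denotes the concentration required for 50% inhibition of growth.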 The source made the active and inactive calls. Cut-off read from the data, not from the text of the source: active = GI50 up to about 1.1 µM and inactive = higher.
Experiments:
Experiment in all cases: NCI tumour cell line growth inhibition, 48 h
UO-31 = test system: UO-31
HT-29 = test system: HT-29
M19-MEL = test system: M19-MEL
UACC-62 = test system: UACC-62
HOP-62 = test system: HOP-62
786-0 = test system: 786-0
UACC-257 = test system: UACC-257
A498 = test system: A498
SF-539 = test system: SF-539
HL-60 = test system: HL-60
OVCAR-8 = test system: OVCAR-8
SN12C = test system: SN12C
LOX IMVI = test system: LOX IMVI
COLO 205 = test system: COLO 205
SF-268 = test system: SF-268
CAKI-1 = test system: CAKI-1
SK-MEL-5 = test system: SK-MEL-5

Row | SMILES | GI50 (UO-31) | GI50 (HT-29) | GI50 (M19-MEL) | GI50 (UACC-62) | GI50 (HOP-62) | GI50 (786-0) | GI50 (UACC-257) | GI50 (A498) | GI50 (SF-539) | GI50 (HL-60) | GI50 (OVCAR-8) | GI50 (SN12C) | GI50 (LOX IMVI) | GI50 (COLO 205) | GI50 (SF-268) | GI50 (CAKI-1) | GI50 (SK-MEL-5)
1 | O=C1O[B-](c2ccccc2)(c2ccccc2)[NH2+]C1CS (stereo not drawn) | 52.2 µM (inactive) | 71.3 µM (inactive) | 35.3 µM (inactive) | 42 µM (inactive) | > 100 µM (inactive) | 21.4 µM (inactive) | 66.1 µM (inactive) | 41.8 µM (inactive) | 57.7 µM (inactive) | 23.9 µM (inactive) | > 100 µM (inactive) | 80.4 µM (inactive) | 24.3 µM (inactive) | 33.4 µM (inactive) | 96.4 µM (inactive) | 35.6 µM (inactive) | 55 µM (inactive)
2 | Cc1c(/C=N/NC(=O)c2cc(Br)cc(Br)c2O)c(=O)n(-c2ccccc2)n1C | 70.5 µM (inactive) | 64.7 µM (inactive) | > 100 µM (inactive) | 19.6 µM (inactive) | 52.7 µM (inactive) | 92 µM (inactive) | 35.3 µM (inactive) | > 100 µM (inactive) | 47 µM (inactive) | 2.49 µM (inactive) | 27.5 µM (inactive) | 69.7 µM (inactive) | 6.53 µM (inactive) | 61.2 µM (inactive) | 83.8 µM (inactive) | 25.2 µM (inactive) | 51.6 µM (inactive)
3 | Cc1c(C(=O)CSc2nc3cc([N+](=O)[O-])ccc3[nH]2)c(=O)n(-c2ccccc2)n1C | > 100 µM (inactive) | > 100 µM (inactive) | > 100 µM (inactive) |  | > 100 µM (inactive) | > 100 µM (inactive) | > 100 µM (inactive) | > 100 µM (inactive) | > 100 µM (inactive) | > 100 µM (inactive) | > 100 µM (inactive) | > 100 µM (inactive) | > 100 µM (inactive) | > 100 µM (inactive) | > 100 µM (inactive) | > 100 µM (inactive) | > 100 µM (inactive)
4 | Cc1cc2c(=O)c3ccc(Cl)cc3[nH]c2c(C(N)=O)c1C | > 100 µM (inactive) | > 100 µM (inactive) | > 100 µM (inactive) | > 100 µM (inactive) | > 100 µM (inactive) | > 100 µM (inactive) | > 100 µM (inactive) | > 100 µM (inactive) | > 100 µM (inactive) | > 100 µM (inactive) | > 100 µM (inactive) | > 100 µM (inactive) | > 100 µM (inactive) | > 100 µM (inactive) | > 100 µM (inactive) |  | > 100 µM (inactive)
5 | O=C1CC2(C[C@@H]3CCCCCCCCC[C@@H](C3)C2)N1 (stereo partly drawn) | 14.4 µM (inactive) | 12.8 µM (inactive) | 15.2 µM (inactive) | 15.8 µM (inactive) | 17.1 µM (inactive) | 16.1 µM (inactive) | 12.2 µM (inactive) | 16.7 µM (inactive) | 15.8 µM (inactive) | 15.1 µM (inactive) | 17.5 µM (inactive) | 16.8 µM (inactive) |  | 16.7 µM (inactive) | 20.4 µM (inactive) | 12.6 µM (inactive) | 16.4 µM (inactive)
6 | CNS(=O)(=O)NN(C)S(=O)(=O)c1ccc(Br)cc1 | > 100 µM (inactive) | > 100 µM (inactive) | > 100 µM (inactive) | > 100 µM (inactive) | > 100 µM (inactive) | > 100 µM (inactive) | > 100 µM (inactive) | > 100 µM (inactive) | > 100 µM (inactive) | > 100 µM (inactive) | > 100 µM (inactive) | > 100 µM (inactive) | > 100 µM (inactive) | > 100 µM (inactive) |  | > 100 µM (inactive) | > 100 µM (inactive)
7 | CCOc1ccc(/C=C/C(=O)c2sc(NNC(C)=O)nc2C)cc1 | > 100 µM (inactive) | > 100 µM (inactive) | > 100 µM (inactive) | > 100 µM (inactive) | > 100 µM (inactive) | > 100 µM (inactive) | > 100 µM (inactive) | > 100 µM (inactive) | > 100 µM (inactive) | > 100 µM (inactive) | > 100 µM (inactive) | > 100 µM (inactive) | > 100 µM (inactive) | > 100 µM (inactive) | > 100 µM (inactive) | > 100 µM (inactive) | > 100 µM (inactive)
8 | COC(=O)c1c(-c2ccccc2)sc(-c2cccc3ccccc23)c1C(=O)OC | 58.2 µM (inactive) | 51.3 µM (inactive) | > 100 µM (inactive) | > 100 µM (inactive) |  | > 100 µM (inactive) | > 100 µM (inactive) | > 100 µM (inactive) | > 100 µM (inactive) | > 100 µM (inactive) | > 100 µM (inactive) | > 100 µM (inactive) | > 100 µM (inactive) | > 100 µM (inactive) | > 100 µM (inactive) | > 100 µM (inactive) | > 100 µM (inactive)
9 | CC1OC(OC2CCCc3c(O)c4c(c(O)c32)C(=O)c2ccccc2C4=O)CC(N)C1O (stereo not drawn) | 1.73 µM (inactive) | 1.47 µM (inactive) | 1.78 µM (inactive) |  | 1.57 µM (inactive) | 1.29 µM (inactive) | 1.62 µM (inactive) | 1.7 µM (inactive) | 1.56 µM (inactive) | 1.75 µM (inactive) | 1.42 µM (inactive) | 1.68 µM (inactive) | 1.61 µM (inactive) | 1.62 µM (inactive) | 1.69 µM (inactive) | 1.43 µM (inactive) | 1.82 µM (inactive)
10 | COc1nc2nccc-2c2occn12 | > 100 µM (inactive) | > 100 µM (inactive) | > 100 µM (inactive) | > 100 µM (inactive) | > 100 µM (inactive) | > 100 µM (inactive) | > 100 µM (inactive) | > 100 µM (inactive) | > 100 µM (inactive) |  | > 100 µM (inactive) | > 100 µM (inactive) | > 100 µM (inactive) | > 100 µM (inactive) | > 100 µM (inactive) | > 100 µM (inactive) | > 100 µM (inactive)
11 | COC1=CC(=O)C2C(C1=O)[C@@H]1c3ccccc3OC(C)(C)[C@H]21 (stereo partly drawn) | 15.2 µM (inactive) | 28.1 µM (inactive) | 20.2 µM (inactive) | > 10 µM (inactive) | > 100 µM (inactive) | 19.1 µM (inactive) | 29.2 µM (inactive) | > 100 µM (inactive) | 23.5 µM (inactive) | 16.4 µM (inactive) | 21.7 µM (inactive) |  | 14.2 µM (inactive) | 19.2 µM (inactive) | 29.6 µM (inactive) | 16.4 µM (inactive) | 27.4 µM (inactive)
12 | CCOC(=O)C1=C(O)C(=O)c2cc(C)ccc2C1=O | > 100 µM (inactive) | > 100 µM (inactive) | 16.6 µM (inactive) | 44.1 µM (inactive) | 63.4 µM (inactive) | > 100 µM (inactive) | 48 µM (inactive) | 21.9 µM (inactive) | > 100 µM (inactive) | > 100 µM (inactive) | > 100 µM (inactive) | > 100 µM (inactive) | 55.2 µM (inactive) | 49.8 µM (inactive) | > 100 µM (inactive) | > 100 µM (inactive) | 31 µM (inactive)
13 | COc1cc(NCC(C#N)C#N)ccc1/N=N/c1ccc([N+](=O)[O-])cc1 | > 100 µM (inactive) | > 100 µM (inactive) | > 100 µM (inactive) | > 100 µM (inactive) | > 100 µM (inactive) | > 100 µM (inactive) | > 100 µM (inactive) | > 100 µM (inactive) | > 100 µM (inactive) |  | > 100 µM (inactive) | > 100 µM (inactive) | > 100 µM (inactive) | > 100 µM (inactive) | > 100 µM (inactive) | > 100 µM (inactive) | > 100 µM (inactive)
14 | COC(=O)/C(C#N)=C(\N)C(Cl)(Cl)Cl | 27.1 µM (inactive) |  | 2.43 µM (inactive) | 1.37 µM (inactive) | 16.1 µM (inactive) | 4.11 µM (inactive) | 3.08 µM (inactive) | 3.4 µM (inactive) |  | 0.319 µM (active) | 2.15 µM (inactive) | 2.87 µM (inactive) | 2.65 µM (inactive) | 2.32 µM (inactive) | 3.92 µM (inactive) | 5.4 µM (inactive) | 1.69 µM (inactive)
15 | COc1ccc2cc3[n+](cc2c1O)CCc1cc2c(cc1-3)OCO2 [BERBERRUBINE CHLORIDE] | > 100 µM (inactive) | 96.4 µM (inactive) | > 100 µM (inactive) | > 100 µM (inactive) | > 100 µM (inactive) | > 100 µM (inactive) | > 100 µM (inactive) | > 100 µM (inactive) | > 100 µM (inactive) | > 100 µM (inactive) | > 100 µM (inactive) | > 100 µM (inactive) | 40.4 µM (inactive) | > 100 µM (inactive) | > 100 µM (inactive) |  | 
16 | O=C(CC1C(=O)Nc2ccccc2S1(=O)=O)Nc1cccc(Cl)c1 (stereo not drawn) | 16.6 µM (inactive) | 17.5 µM (inactive) | 19.1 µM (inactive) | 15.1 µM (inactive) |  | 14.1 µM (inactive) | 19.8 µM (inactive) | 18.9 µM (inactive) | 10.7 µM (inactive) | 18.5 µM (inactive) | 17.8 µM (inactive) | 15.7 µM (inactive) | 15.2 µM (inactive) |  | 16.2 µM (inactive) | 21.1 µM (inactive) | 19.1 µM (inactive)
17 | CCC1NCC(=O)c2c1[nH]c1ccccc21 (stereo not drawn) | > 100 µM (inactive) | > 100 µM (inactive) | > 100 µM (inactive) | > 100 µM (inactive) |  | > 100 µM (inactive) | > 100 µM (inactive) | > 100 µM (inactive) | > 100 µM (inactive) | > 100 µM (inactive) | > 100 µM (inactive) | > 100 µM (inactive) | > 100 µM (inactive) | > 100 µM (inactive) | > 100 µM (inactive) | > 100 µM (inactive) | > 100 µM (inactive)
